Measured values from patent US5744462A, “Steroids useful as anti-cancer and anti-obesity agents” (Research Corporation Technologies, Inc., priority 1995, dated 1998).
“Also recorded” adds a separate entry of the source.

Tests used:
[1] = DMBA-initiated and TPA-promoted; cited from earlier work
HeLa cell strain, TCRC-2 = details: cited from earlier work
mouse epidermis = details: cited from earlier work
[2] = in vivo; cited from earlier work
[3] = C3H mice, cited from earlier work
[4] = system: human lymphocytes (Epstein-Barr virus-induced transformation); details: cited from earlier work
[5] = long term treatment, NZB mice; cited from earlier work
liver catalase = assay: Liver catalase activity after three weeks of diet treatment; assay type: in vivo, mouse (female Balb/c)
Description: (§1) Female Balb/c mice were housed in polycarbonate cages (6/mice/cage) in animal quarters maintained at 24°±1° C. with 12 hours of light and 12 hours of dark each day. The mice were placed on a diet containing either DHEA, 8354, A, B clofibrate or with no addition. Three weeks later the mice were killed, the livers were perfused with cold saline, weighed, and 5% liver homogenates were prepared for the determination of catalase activity by the spectrophotometric method of Luck (H. Luck, in Method in Enzyme Analysis, H. U. Bergmeyer, Ed. (Verlag Chemie, Weinheim/Bergstrasse, Germany, 1965)). Total protein was measured by the method of Lowry, et al. (O. H. Lowry, N. J. Rosebrough, A. L. Farr, R. J. Randall, J. Biol. Chem., 193, 265 (1951)).

[6] = topical, complete carcinogenesis model; cited from earlier work
[7] = Estrogenic and anti-estrogenic activity, uterine weight; assay type: in vivo, rat (female CD); details: 60 mg/kg s.c. for 3 days, DHEA significantly greater than control
Description: Estrogenic and Anti-Estrogenic Activity
Female CD rats, 26-27 days old, were injected subcutaneously for 3 days with one of the compounds of the present invention at 60 mg/kg in propylene glycol. Controls received propylene glycol alone. On the 4th day, the rats were killed and the uteri were dissected out and weighed.

[8] = Anti-weight effect in mice, general statements; assay type: in vivo, mouse
Description: (Table 9 vs Table 5 and Table 6). […] Thus the cancer preventive the cancer preventive effect of DHEA may result indirectly from its anti-weight action rather than from a direct effect of DHEA or target cells.

[9] = system: mouse epidermis (TPA stimulated 3H-thymidine incorporation); assay: TPA stimulation of 3H-thymidine incorporation in mouse epidermis, oral steroid; assay type: in vivo, mouse (male ICR)
Description: (§2) Tumor promoters, such as TPA, stimulate hyperplasia and DNA synthesis when applied to the skin, and it is believed that this stimulation is an important step in the enhancement of tumorigenesis.
Male ICR mice were orally intubated with steroid suspended in sesame oil (0.5 ml/mouse) at the indicated dose. Mice not receiving steroid were given sesame oil alone. One hour later mice received topical application of TPA and 20 hours later the rate of ^3 H-thymidine incorporation into the epidermis was determined as described in Pashko, L. L., Schwartz, A. G., Abou-Gharbia, M., and Swern, D. (1981), Inhibition of DNA synthesis in mouse epidermis and breast epithelium by dehydroepiandrosterone and related steroids, Carcinogenesis, 2,-717-721.
Experimental conditions are the same as in Table 3.

[10] = Body weight and food consumption in the DMBA binding experiment; assay type: in vivo, mouse; details: two weeks of feeding
Description: Binding of [^3 H]DMBA to mouse skin DNA was determined as described in Pashko, L. L., and Schwartz, A. G. (1983), Effect of food restriction, dehydroepiandrosterone, or obesity on the binding of ^3 H-7,12-dimethylbenz(a)anthracene to mouse skin DNA, J. Gerontol., 38, 8-12. Values are mean±SD for 3 individual determinations, with pooled tissue from 2 mice used for each determination. DHEA or testosterone (400 ug in 0.2 ml acetone) was applied to the skin one hour before [^3 H]DMBA. The mean weight of the food restricted mice was 18.5±1.0 gm, n=6, of the ad libitum fed, 27.4±1.0 gm, n=6, of the ad libitum fed treated with DHEA, 28.2±0.9 gm, n=6, and of the ad libitum fed treated with testosterone, 28.3±0.9 gm, n=6, following two weeks of feeding. The average food consumed was, in gm/mouse/day, 2.2, 3.8, 3.8 and 4.0 for the food restricted, ad libitum fed, ad libitum fed plus DHEA, and ad libitum fed plus testosterone groups, respectively.

[11] = daily approximately 400 mg/kg, long-term; cited from earlier work
[12] = Liver weight after three weeks of diet treatment; assay type: in vivo, mouse (female Balb/c); details: 0.25% of diet
Description: as §1

[13] = oral; cited from earlier work
[14] = without suppressing appetite; cited from earlier work
[15] = system: mouse epidermal DNA (TPA stimulated 3H-thymidine incorporation); assay: TPA stimulation of 3H-thymidine incorporation in epidermis, topical steroid; assay type: in vivo, mouse (A/J); details: for SPECIFIC ACTIVITY, TPA stimulated 3H-thymidine incorporation: no steroid 66, TPA alone 174
Description: as §2
Incorporation of ^3 H-thymidine into A/J mouse epidermal DNA was determined as described in Pashko, L. L., Schwartz, A. G., Abou-Gharbia, M. and Swern, D. (1981), Inhibition of DNA synthesis in mouse epidermis and breast epithelium by dehydroepiandrosterone and related steroids, Carcinogenesis, 2, 717-721. Values are mean±SD for 3 separately treated mice in each group 20 hours after TPA application. DHEA or testosterone was added topically in 0.2 ml acetone one hour before TPA addition.

SMILES: C[C@]12CC[C@H](O)CC1=CC[C@@H]1[C@@H]2CC[C@]2(C)C(=O)CC[C@@H]12 [DHEA, Dehydroepiandrosterone]
- skin papilloma formation [1]: inhibit
- growth inhibition of HeLa TCRC-2 (HeLa cell strain, TCRC-2): particularly sensitive to DHEA-induced growth inhibition
- reversal of growth inhibition by deoxynucleosides (HeLa cell strain, TCRC-2; mixture of deoxynucleosides of adenine, guanine, cytosine, thymine in medium): can be almost completely overcome
- capacity of TPA to stimulate 3H-thymidine incorporation (mouse epidermis): antagonizes
- estrogenic effect after prolonged administration [2]: evidence of an estrogenic effect after prolonged administration
- weight gain on long-term treatment [3]: reducing weight gain without suppressing appetite
- spontaneous breast cancer development ([3]; long-term treatment): markedly inhibits spontaneous breast cancer development
- inhibition of Epstein-Barr virus-induced transformation [4]: inhibitors of Epstein-Barr virus-induced transformation of human lymphocytes
- rate of development of the autoimmune anemia [5]: significantly inhibits the rate of development of the autoimmune anemia
- CATALASE ACTIVITY (liver catalase; 0.25% of diet, control 31.1 ± 6.7, DHEA p < 0.05, clofibrate p < 0.001 vs control): 97.8 ± 24 Units per mg protein
- increase in liver catalase specific activity (liver catalase; 0.25%, vs control): threefold
- catalase activity, in words (liver catalase; mice, 0.25% of diet): stimulated catalase activity
- DMBA produced papillomas and carcinomas [6]: inhibits DMBA produced papillomas and carcinomas
- Mean Uterine Weight ± S.D. ([7]; control 2.02 ± 0.28, p < .001): 4.17 ± 0.48 mg/100 gm body weight
- Mean Uterine Weigh ± S.D. ([7]; Table 2a, control 1.95 ± 0.22, p < 0.001): 3.93 ± 0.71
- anti-weight effect ([8]; approximately 400 mg/kg daily, repeatedly over a few weeks): produces an anti-weight effect
- effect on weight: cause of the anti-weight effect ([8]; four weeks, 400 mg/kg): due to both a reduction in food intake and to a decrease in the efficiency of food utilization
- SPECIFIC ACTIVITY, TPA stimulated 3H-thymidine incorporation ([9]; Table 9, oral 400 mg/kg, no steroid 55.1, TPA alone 118): 50.9 ± 3.2 cpm/ug DNA
- effect on TPA stimulation in 3H-thymidine incorporation ([9]; oral, mice, doses well below 400 mg/kg, comparable to food restriction): inactive
- effect on TPA stimulation of 3H-thymidine incorporation ([9]; single administration, 400 mg/kg, mice, compared with food restriction or topical 400 ug DHEA): does not inhibit the TPA stimulation in epidermal ^3 H-thymidine incorporation to a degree comparable
- mean body weight ([10]; topical 400 ug, ad libitum fed 27.4±1.0): 28.2±0.9 gm
- average food consumed ([10]; ad libitum fed 3.8): 3.8 gm/mouse/day
- development of breast, lung, and colon tumors [11]: inhibit the development of breast, lung, and colon tumors
- LIVER WEIGHT ([12]; control 0.057 ± 0.006, DHEA p < 0.05, clofibrate p < 0.002 vs control): 0.074 ± 0.005 gm/gm body weight
- liver weight, in words ([12]; mice): increased liver weight; also recorded: hepatomegaly
- survival [13]: prolonged the survival
- effect on obesity on long-term administration [14]: prevented the development of obesity without suppressing appetite
- SPECIFIC ACTIVITY, TPA stimulated 3H-thymidine incorporation ([15]; topical 100 ug): 52 ± 5.8 cpm/ug DNA
- SPECIFIC ACTIVITY, TPA stimulated 3H-thymidine incorporation ([15]; topical 400 ug): 22 ± 6.5 cpm/ug DNA
- effect on TPA stimulation of 3H-thymidine incorporation ([15]; topical, in words (Table 5)): abolishes this stimulation
